From ChEMBL document CHEMBL4507327 (2021)
Blank lines part the entries; values can stand above or below the molecule they belong to.

Key:
Ephrin type-B receptor 1 = Ephrin type-B receptor 1 (Homo sapiens, UniProt P54762); assay: EphB1(EPB1LGY1) Takeda global kinase panel
[1] = biological target: Protein-tyrosine kinase 6 (Homo sapiens, UniProt Q13882); assay: Brk(PTK6LGY1) Takeda global kinase panel
[2] = biological target: Purinergic P2Y (Rattus norvegicus) (UniProt O35811+Q9EPX4+P49651+Q63371+P41232+O35881+Q6GUG4); assay: Inhibition of Purinergic P2Y at compound concentration of 10.0 uM in the Eurofins-Panlabs radioligand binding assay (Eurofins_assay_268820); format: protein assay; design: ligand concentration 0.1 nM; conditions: Compound concentration 10.0 uM
[3] = biological target: Cyclin-dependent kinase 16 (Homo sapiens, UniProt Q00536); assay: PCTAIRE1(CD16SGS1) Takeda global kinase panel
[4] = biological target: Cyclin-dependent kinase 4 (Homo sapiens, UniProt P11802); assay: CDK4(CDK4CGS1) Takeda global kinase panel
[5] = biological target: Ankyrin repeat and protein kinase domain-containing protein 1 (Homo sapiens, UniProt Q8NFD2); assay: SgK288(ANK1LGRL) Takeda global kinase panel
[6] = biological target: Melatonin receptor type 1A (Homo sapiens) (UniProt P48039); assay: Inhibition of Melatonin MT1 at 10 µM in the Eurofins-Panlabs radioligand binding assay (Eurofins_assay_251600); design: ligand concentration 0.05 nM; conditions: Compound concentration 10.0 uM
[7] = biological target: Testis-specific serine/threonine-protein kinase 1 (Homo sapiens, UniProt Q9BXA7); assay: TSSK1(TS1BLGP1) Takeda global kinase panel
[8] = biological target: Microtubule-associated serine/threonine-protein kinase 3 (Homo sapiens, UniProt O60307); assay: MAST3(MAS3LGE1) Takeda global kinase panel
[9] = biological target: Insulin-like growth factor 1 receptor (Homo sapiens, UniProt P08069); assay: IGF1R(IGF1LGF1) Takeda global kinase panel
[10] = biological target: Insulin receptor-related protein (Homo sapiens, UniProt P14616); assay: IRR(INSSLGF1) Takeda global kinase panel
[11] = biological target: Tyrosine-protein kinase ABL1 (Homo sapiens, UniProt P00519); assay: Abl(ABL1IHY1) Takeda global kinase panel
[12] = biological target: Ribosomal protein S6 kinase beta-1 (Homo sapiens, UniProt P23443); assay: p70S6K(R6B1CGF1) Takeda global kinase panel
[13] = biological target: Sigma non-opioid intracellular receptor 1 (Homo sapiens) (UniProt Q99720); assay: Sigma 1 Eurofins-Panlabs radioligand binding assay; design: ligand concentration 15 nM; conditions: Compound concentration 10.0 uM
[14] = biological target: Voltage-dependent N-type calcium channel subunit alpha-1B (Homo sapiens) (UniProt Q00975); assay: Inhibition of Calcium Channel N-Type at 10 µM in the Eurofins-Panlabs radioligand binding assay (Eurofins_assay_216000); conditions: Rattus norvegicus; Compound concentration 10.0 uM
[15] = biological target: Mitogen-activated protein kinase 6 (Homo sapiens, UniProt Q16659); assay: ERK3(MAP6LHY1) Takeda global kinase panel
[16] = biological target: Glucocorticoid receptor (Homo sapiens) (UniProt P04150); conditions: Compound concentration 10.0 uM
[17] = biological target: Bone morphogenetic protein receptor type-1B (Homo sapiens, UniProt O00238); assay: BMPR1B(BM1BLGF1) Takeda global kinase panel
Mus musculus = organism: Mus musculus; assay: Inhibition of Phorbol Ester at 10 µM in the Eurofins-Panlabs radioligand binding assay (Eurofins_assay_264500); design: ligand concentration 3 nM; conditions: Compound concentration 10.0 uM
eIF-2-alpha kinase GCN2 = eIF-2-alpha kinase GCN2 (Homo sapiens, UniProt Q9P2K8); assay: GCN2(EIK4PHK1) Takeda global kinase panel
[18] = biological target: Wee1-like protein kinase 2 (Homo sapiens, UniProt P0C1S8); assay: Wee1B(WE1BLGF1) Takeda global kinase panel
[19] = biological target: Dual specificity protein kinase CLK1 (Homo sapiens, UniProt P49759); assay: CLK1(CLK1LGF1) Takeda global kinase panel
[20] = biological target: Hormonally up-regulated neu tumor-associated kinase (Homo sapiens, UniProt P57058); assay: HUNK(HUNKLGRN) Takeda global kinase panel
[21] = biological target: Dual specificity tyrosine-phosphorylation-regulated kinase 4 (Homo sapiens, UniProt Q9NR20); assay: DYRK4(DYR4LHY1) Takeda global kinase panel
[22] = biological target: Dual specificity mitogen-activated protein kinase kinase 1 (Homo sapiens, UniProt Q02750); assay: MEK1 [MAP2K1(M2K1LGF1)] Takeda global kinase panel
[23] = biological target: Vascular endothelial growth factor receptor 3 (Homo sapiens, UniProt P35916); assay: FLT4(FLT4LGY1) Takeda global kinase panel
[24] = biological target: Ribosomal protein S6 kinase alpha-1 (Homo sapiens, UniProt Q15418); assay: RSK1 [p90RSK(R6A2CGE1)] Takeda global kinase panel
[25] = biological target: Serine/threonine-protein kinase Nek2 (Homo sapiens, UniProt P51955); assay: Nek2(NEK2LHFA) Takeda global kinase panel
[26] = biological target: Mitogen-activated protein kinase 1 (Homo sapiens, UniProt P28482); assay: ERK2(MAP1LGY1) Takeda global kinase panel
[27] = biological target: Cysteinyl leukotriene receptor 1 (Homo sapiens) (UniProt Q9Y271); assay: Inhibition of Leukotriene, Cysteinyl CysLT1 at 10 µM in the Eurofins-Panlabs radioligand binding assay (Eurofins_assay_250460); design: ligand concentration 0.3 nM, non-specific ligand with concentration 0.3 µM Leukotriene D4, incubation time 30 min, incubation temperature 25 °C; conditions: Compound concentration 10.0 uM
[28] = biological target: Muscle, skeletal receptor tyrosine-protein kinase (Homo sapiens, UniProt O15146); assay: MUSK(MUSKLGY1) Takeda global kinase panel
[29] = biological target: Mitogen-activated protein kinase kinase kinase 14 (Homo sapiens, UniProt Q99558); assay: NIK(M314LGP1) Takeda global kinase panel
[30] = biological target: Death-associated protein kinase 2 (Homo sapiens, UniProt Q9UIK4); assay: DAPK2(DAP2LGF1) Takeda global kinase panel
[31] = biological target: Mitogen-activated protein kinase 3 (Homo sapiens, UniProt P27361); assay: ERK1(MAP3LGY1) Takeda global kinase panel
[32] = biological target: D(3) dopamine receptor (Homo sapiens) (UniProt P35462); conditions: Compound concentration 10.0 uM
[33] = biological target: Cyclin-dependent kinase 1 (Homo sapiens, UniProt P06493); assay: CDC2 [CDK1(CDK1CGS1)] Takeda global kinase panel
[34] = biological target: Mast/stem cell growth factor receptor Kit (Homo sapiens, UniProt P10721); assay: Kit(KIT1MGC1) Takeda global kinase panel
[35] = biological target: Alpha-1B adrenergic receptor (Homo sapiens) (UniProt P35368); assay: Adrenergic alpha1B Eurofins-Panlabs radioligand binding assay; design: ligand concentration 0.2 nM; conditions: Compound concentration 10.0 uM
[36] = biological target: Protein kinase C eta type (Homo sapiens, UniProt P24723); assay: PKCeta(PRKHLGRA) Takeda global kinase panel
[37] = biological target: GABA-A receptor; anion channel (Rattus norvegicus) (UniProt O09028+P15431+P18506+P18508+P19969+P20236+P23574+P23576+P28471+P28473+P30191+P62813+P63079+P63138+Q91ZM7+Q9ES14); conditions: Compound concentration 10.0 uM
[38] = biological target: Ribosomal protein S6 kinase alpha-6 (Homo sapiens, UniProt Q9UK32); assay: RSK4(R6A6LGF1) Takeda global kinase panel
[39] = biological target: Serine/threonine-protein kinase PLK3 (Homo sapiens, UniProt Q9H4B4); assay: PLK3(PLK3PHY1) Takeda global kinase panel
Chain of Serine/threonine-protein kinase PLK3 (Q9H4B4 whole entry): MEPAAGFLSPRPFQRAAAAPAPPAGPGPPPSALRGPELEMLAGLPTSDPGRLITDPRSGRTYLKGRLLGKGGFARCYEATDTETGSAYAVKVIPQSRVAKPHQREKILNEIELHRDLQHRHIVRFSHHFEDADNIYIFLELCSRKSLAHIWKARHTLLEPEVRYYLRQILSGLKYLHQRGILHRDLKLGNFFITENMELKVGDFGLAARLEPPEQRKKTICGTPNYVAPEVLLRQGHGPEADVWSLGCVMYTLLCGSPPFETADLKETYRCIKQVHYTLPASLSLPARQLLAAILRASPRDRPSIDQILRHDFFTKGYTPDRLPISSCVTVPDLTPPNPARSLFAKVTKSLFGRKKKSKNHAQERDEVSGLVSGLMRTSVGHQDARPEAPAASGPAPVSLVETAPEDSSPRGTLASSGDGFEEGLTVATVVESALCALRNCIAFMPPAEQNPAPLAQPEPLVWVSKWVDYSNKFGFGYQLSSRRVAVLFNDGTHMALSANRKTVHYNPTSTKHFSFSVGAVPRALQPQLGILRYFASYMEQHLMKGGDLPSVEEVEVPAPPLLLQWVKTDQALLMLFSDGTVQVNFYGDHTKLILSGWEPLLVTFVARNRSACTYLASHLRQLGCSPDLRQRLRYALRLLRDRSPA

Chain of Death-associated protein kinase 2 (Q9UIK4 whole entry): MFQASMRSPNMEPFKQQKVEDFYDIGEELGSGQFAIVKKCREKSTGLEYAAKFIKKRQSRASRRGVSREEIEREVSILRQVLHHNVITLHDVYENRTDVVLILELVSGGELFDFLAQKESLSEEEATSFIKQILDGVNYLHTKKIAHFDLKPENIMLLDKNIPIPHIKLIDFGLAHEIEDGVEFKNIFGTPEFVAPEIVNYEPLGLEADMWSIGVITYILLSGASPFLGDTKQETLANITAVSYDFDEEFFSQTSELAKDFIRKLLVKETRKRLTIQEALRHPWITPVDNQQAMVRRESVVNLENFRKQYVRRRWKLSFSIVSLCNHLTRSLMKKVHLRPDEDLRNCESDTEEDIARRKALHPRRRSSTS
Chain of Tyrosine-protein kinase ABL1 (P00519 whole entry): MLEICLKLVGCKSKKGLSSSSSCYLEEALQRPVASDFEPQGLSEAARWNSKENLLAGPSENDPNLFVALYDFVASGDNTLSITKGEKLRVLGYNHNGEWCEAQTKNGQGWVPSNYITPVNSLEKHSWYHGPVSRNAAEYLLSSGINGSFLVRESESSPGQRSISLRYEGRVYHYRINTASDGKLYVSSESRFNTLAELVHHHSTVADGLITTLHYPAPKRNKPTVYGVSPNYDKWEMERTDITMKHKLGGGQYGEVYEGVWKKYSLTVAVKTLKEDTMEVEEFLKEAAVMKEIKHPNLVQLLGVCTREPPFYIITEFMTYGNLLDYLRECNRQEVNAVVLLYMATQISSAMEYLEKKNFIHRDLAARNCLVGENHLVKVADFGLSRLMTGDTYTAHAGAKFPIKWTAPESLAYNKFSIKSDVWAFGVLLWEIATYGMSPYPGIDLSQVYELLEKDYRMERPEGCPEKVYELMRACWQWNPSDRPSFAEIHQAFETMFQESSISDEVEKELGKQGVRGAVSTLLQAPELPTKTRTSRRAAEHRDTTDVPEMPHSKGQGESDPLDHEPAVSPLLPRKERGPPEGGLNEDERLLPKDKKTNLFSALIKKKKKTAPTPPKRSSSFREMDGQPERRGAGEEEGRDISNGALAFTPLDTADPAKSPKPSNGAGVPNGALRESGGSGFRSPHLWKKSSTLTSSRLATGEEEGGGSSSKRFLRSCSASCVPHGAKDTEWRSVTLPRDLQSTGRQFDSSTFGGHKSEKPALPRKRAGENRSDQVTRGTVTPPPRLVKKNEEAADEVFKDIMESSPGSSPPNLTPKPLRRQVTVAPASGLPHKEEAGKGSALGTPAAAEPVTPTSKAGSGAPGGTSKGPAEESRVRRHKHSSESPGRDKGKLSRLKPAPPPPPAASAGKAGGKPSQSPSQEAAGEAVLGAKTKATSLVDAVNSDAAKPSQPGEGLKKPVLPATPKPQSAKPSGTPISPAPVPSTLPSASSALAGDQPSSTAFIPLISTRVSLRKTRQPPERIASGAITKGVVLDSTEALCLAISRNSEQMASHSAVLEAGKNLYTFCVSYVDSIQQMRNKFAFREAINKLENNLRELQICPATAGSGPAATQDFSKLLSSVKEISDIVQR
Chain of Protein-tyrosine kinase 6 (Q13882 whole entry): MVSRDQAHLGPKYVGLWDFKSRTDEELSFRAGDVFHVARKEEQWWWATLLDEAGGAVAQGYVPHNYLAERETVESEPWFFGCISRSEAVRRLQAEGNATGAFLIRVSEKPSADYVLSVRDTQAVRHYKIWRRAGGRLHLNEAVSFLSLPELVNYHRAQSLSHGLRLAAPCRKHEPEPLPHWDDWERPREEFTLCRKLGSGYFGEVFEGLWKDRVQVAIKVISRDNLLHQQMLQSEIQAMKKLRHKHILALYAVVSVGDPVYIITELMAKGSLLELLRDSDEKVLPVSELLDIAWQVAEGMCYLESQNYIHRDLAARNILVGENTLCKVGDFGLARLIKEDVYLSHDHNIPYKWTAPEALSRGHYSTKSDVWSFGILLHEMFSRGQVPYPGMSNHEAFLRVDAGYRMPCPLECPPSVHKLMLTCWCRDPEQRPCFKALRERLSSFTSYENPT
Chain of Vascular endothelial growth factor receptor 3 (P35916 whole entry): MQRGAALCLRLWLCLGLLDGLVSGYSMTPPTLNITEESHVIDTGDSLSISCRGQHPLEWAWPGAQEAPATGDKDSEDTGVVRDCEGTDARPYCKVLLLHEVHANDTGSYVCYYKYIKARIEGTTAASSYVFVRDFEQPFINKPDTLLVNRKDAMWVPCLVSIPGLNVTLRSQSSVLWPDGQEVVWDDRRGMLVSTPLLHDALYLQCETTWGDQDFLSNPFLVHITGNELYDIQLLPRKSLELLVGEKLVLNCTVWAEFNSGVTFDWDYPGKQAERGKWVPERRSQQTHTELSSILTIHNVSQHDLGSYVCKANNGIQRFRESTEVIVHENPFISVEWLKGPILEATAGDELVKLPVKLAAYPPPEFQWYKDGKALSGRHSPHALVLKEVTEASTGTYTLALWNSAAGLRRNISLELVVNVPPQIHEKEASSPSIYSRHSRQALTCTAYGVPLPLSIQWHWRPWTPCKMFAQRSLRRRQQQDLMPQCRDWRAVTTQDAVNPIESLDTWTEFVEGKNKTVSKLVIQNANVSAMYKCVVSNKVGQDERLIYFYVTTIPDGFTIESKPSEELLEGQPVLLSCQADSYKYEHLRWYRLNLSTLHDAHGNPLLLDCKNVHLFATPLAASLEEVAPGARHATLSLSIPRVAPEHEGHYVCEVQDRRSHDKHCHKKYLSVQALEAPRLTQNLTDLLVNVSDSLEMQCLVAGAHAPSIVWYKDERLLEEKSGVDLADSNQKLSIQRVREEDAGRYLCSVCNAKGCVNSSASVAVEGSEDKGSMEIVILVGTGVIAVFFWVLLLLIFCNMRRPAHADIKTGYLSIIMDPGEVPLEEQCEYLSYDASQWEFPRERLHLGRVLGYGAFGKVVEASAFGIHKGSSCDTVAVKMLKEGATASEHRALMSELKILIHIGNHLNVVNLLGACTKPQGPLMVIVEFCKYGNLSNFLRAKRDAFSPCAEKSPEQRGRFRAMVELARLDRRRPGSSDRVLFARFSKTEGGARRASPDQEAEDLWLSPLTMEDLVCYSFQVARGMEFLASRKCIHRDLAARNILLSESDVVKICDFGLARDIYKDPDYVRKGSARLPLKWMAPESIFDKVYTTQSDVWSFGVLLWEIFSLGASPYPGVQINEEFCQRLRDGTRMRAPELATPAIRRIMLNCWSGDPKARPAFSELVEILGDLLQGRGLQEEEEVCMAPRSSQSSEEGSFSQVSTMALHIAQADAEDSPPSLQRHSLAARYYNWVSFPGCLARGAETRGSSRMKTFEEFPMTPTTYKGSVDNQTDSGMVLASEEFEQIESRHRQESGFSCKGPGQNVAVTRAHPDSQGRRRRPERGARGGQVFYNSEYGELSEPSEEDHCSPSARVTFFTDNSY
Chain of Muscle, skeletal receptor tyrosine-protein kinase (O15146 whole entry): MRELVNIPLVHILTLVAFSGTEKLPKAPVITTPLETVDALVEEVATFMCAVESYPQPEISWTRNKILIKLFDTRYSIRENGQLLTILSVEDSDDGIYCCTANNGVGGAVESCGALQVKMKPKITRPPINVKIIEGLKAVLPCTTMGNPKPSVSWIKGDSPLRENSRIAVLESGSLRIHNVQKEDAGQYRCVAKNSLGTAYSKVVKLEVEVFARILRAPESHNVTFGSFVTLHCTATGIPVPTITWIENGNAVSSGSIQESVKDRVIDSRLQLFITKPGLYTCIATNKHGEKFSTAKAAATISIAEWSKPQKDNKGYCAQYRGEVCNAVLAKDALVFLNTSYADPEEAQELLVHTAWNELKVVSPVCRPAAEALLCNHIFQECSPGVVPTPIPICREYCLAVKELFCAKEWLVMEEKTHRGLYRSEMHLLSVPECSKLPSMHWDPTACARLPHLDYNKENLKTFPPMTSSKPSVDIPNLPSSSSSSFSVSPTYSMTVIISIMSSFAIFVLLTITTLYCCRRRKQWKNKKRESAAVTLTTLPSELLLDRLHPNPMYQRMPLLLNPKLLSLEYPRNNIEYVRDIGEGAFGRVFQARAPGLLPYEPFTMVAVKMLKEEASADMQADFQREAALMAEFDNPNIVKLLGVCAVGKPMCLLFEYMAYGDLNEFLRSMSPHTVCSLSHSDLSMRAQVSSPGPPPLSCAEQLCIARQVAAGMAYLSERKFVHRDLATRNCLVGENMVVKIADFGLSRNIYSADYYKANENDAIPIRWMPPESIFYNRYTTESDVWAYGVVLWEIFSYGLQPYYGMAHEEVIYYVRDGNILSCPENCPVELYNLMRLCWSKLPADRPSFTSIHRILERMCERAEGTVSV
Chain of Sigma non-opioid intracellular receptor 1 (Homo sapiens) (Q99720 whole entry): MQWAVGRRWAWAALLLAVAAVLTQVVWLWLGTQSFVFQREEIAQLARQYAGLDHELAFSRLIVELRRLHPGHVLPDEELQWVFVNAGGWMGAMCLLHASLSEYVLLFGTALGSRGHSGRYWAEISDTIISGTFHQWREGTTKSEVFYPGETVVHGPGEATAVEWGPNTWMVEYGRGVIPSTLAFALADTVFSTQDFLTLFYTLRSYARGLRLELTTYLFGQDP

Structure (SMILES): CN1C(=O)[C@@H](N2CCc3cn(Cc4ccccc4)nc3C2=O)COc2ccccc21 [TP-030-1]
IC50 (Ephrin type-B receptor 1): 1000 nM | IC50 [1]: 1000 nM | inhibition [2]: -5% | IC50 [3]: 1000 nM | IC50 [4]: 1000 nM | IC50 [5]: 1000 nM | inhibition [6]: 45% | IC50 [7]: 1000 nM | IC50 [8]: 1000 nM | IC50 [9]: 1000 nM | IC50 [10]: 1000 nM | IC50 [11]: 1000 nM | IC50 [12]: 1000 nM | inhibition [13]: 27% | inhibition [14]: -2% | IC50 [15]: 1000 nM | inhibition [16]: 5% | IC50 [17]: 1000 nM | inhibition (Mus musculus): -3% | IC50 (eIF-2-alpha kinase GCN2): 1000 nM | IC50 [18]: 1000 nM | IC50 [19]: 1000 nM | IC50 [20]: 1000 nM | IC50 [21]: 1000 nM | IC50 [22]: 1000 nM | IC50 [23]: 1000 nM | IC50 [24]: 1000 nM | IC50 [25]: 1000 nM | IC50 [26]: 1000 nM | inhibition [27]: 0% | IC50 [28]: 1000 nM | IC50 [29]: 1000 nM | IC50 [30]: 1000 nM | IC50 [31]: 1000 nM | inhibition [32]: 8% | IC50 [33]: 1000 nM | IC50 [34]: 1000 nM | inhibition [35]: 2% | IC50 [36]: 1000 nM | inhibition [37]: 8% | IC50 [38]: 1000 nM | IC50 [39]: 1000 nM

IC50 (Ephrin type-B receptor 1): 1000 nM | IC50 [1]: 1000 nM | inhibition [2]: 8% | IC50 [3]: 1000 nM | IC50 [4]: 1000 nM | IC50 [5]: 1000 nM | inhibition [6]: 9% | IC50 [7]: 1000 nM | IC50 [8]: 1000 nM | IC50 [9]: 1000 nM | IC50 [10]: 1000 nM | IC50 [11]: 1000 nM | IC50 [12]: 1000 nM | inhibition [13]: 11% | inhibition [14]: 2% | IC50 [15]: 1000 nM | inhibition [16]: 3% | IC50 [17]: 1000 nM | inhibition (Mus musculus): 7% | IC50 (eIF-2-alpha kinase GCN2): 1000 nM | IC50 [18]: 1000 nM | IC50 [19]: 1000 nM | IC50 [20]: 1000 nM | IC50 [21]: 1000 nM | IC50 [22]: 1000 nM | IC50 [23]: 1000 nM | IC50 [24]: 1000 nM | IC50 [25]: 1000 nM | IC50 [26]: 1000 nM | inhibition [27]: 0% | IC50 [28]: 1000 nM | IC50 [29]: 1000 nM | IC50 [31]: 1000 nM | inhibition [32]: 4% | IC50 [33]: 1000 nM | IC50 [34]: 1000 nM | inhibition [35]: 1% | IC50 [36]: 1000 nM | inhibition [37]: 12% | IC50 [38]: 1000 nM | IC50 [39]: 1000 nM
Structure (SMILES): CN1C(=O)[C@@H](N2CCc3cn(CC4CCS(=O)(=O)CC4)nc3C2=O)COc2ccccc21 [TP-030n]
IC50 [30]: 1000 nM
